Measurements published in patent publication US8969554B2, “6-acyl-1,2,4-triazine-3,5-dione derivative and herbicides” (Kumiai Chemical Industry Co., Ltd., priority 2010, dated 2015).

Assays:
Type in all cases: in vivo
Setaria viridis = test: Herbicidal activity by field foliage treatment (Test example 3); conditions: 1000 g effective component per hectare, day 14 after the treatment;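 further: index 0 to 10 in 10% steps of herbicidal effect with 10 meaning complete death and 0 below 10%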
In short: (§1)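 Herbicidal effect was rated on day 14 following a foliar spray of 1000 g active ingredient per hectare, applied as water-diluted wettable powder at 1000 L/ha. Plants had been raised for 2 weeks in field soil under greenhouse conditions before spraying.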

Echinochloa oryzicola = test: Herbicidal activity by paddy field soil treatment (Test Example 1); design: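 index 0 to 10 in 10% steps of herbicidal effect with 10 meaning complete death and 0 below 10%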; conditions: 1000 g of effective component per hectare, evaluated on day 21 after the treatment, criteria of Table 72
In short: (§2)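 Paddy soil was watered and puddled, seeded, then flooded to 3 cm. One day later the formulation, diluted with water, went onto the water surface at 1000 g/ha of active ingredient. After 21 days in the greenhouse, effects were scored.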

Monochoria vaginalis = test: as above; design: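 index 0 to 10 in 10% steps of herbicidal effect with 10 meaning complete death and 0 below 10%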; conditions: 1000 g of effective component per hectare, evaluated on day 21 after the treatment, criteria of Table 72
In short: as §2

Scirpus juncoides Rocxb. = test: as above; design: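 index 0 to 10 in 10% steps of herbicidal effect with 10 meaning complete death and 0 below 10%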; conditions: applied on water surface, 1000 g of effective component per hectare, day 21 after the treatment
In short: as §2

Echinochloa crus-galli [1] = test: Herbicidal activity by field foliage treatment (Test example 3); design: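 index 0 to 10 in 10% steps of herbicidal effect with 10 meaning complete death and 0 below 10%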; conditions: 1000 g effective component per hectare, day 14 after the treatment
In short: as §1

Indian millet [2] = test: as above; design: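 index 0 to 10 in 10% steps of herbicidal effect with 10 meaning complete death and 0 below 10%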; conditions: 1000 g effective component per hectare, day 14 after the treatment
In short: (§3)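 Seeds sown in field soil and kept 2 weeks in a greenhouse; foliage of the whole plant then sprayed with diluted wettable powder (1000 L/ha, 1000 g a.i./ha); plants returned to the greenhouse and scored for herbicidal effect on day 14.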

A. retroflexus [3] = test: as above; design: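 index 0 to 10 in 10% steps of herbicidal effect with 10 meaning complete death and 0 below 10%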; conditions: 1000 g effective component per hectare, day 14 after the treatment
In short: as §3

foxtail = test: Herbicidal activity by field soil treatment (Test example 2); conditions: 1000 g effective component per hectare, day 21 after the treatment;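 further: index 0 to 10 in 10% steps of herbicidal effect with 10 meaning complete death and 0 below 10%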
In short: (§4)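 Field soil filled 80 cm^2 pots; seeds were sown, covered, and the soil surface treated with a small sprayer. Dose: 1000 g/ha of active component from a water-diluted wettable powder, applied in 1000 L/ha. Greenhouse cultivation followed, with evaluation at day 21.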

Indian millet [4] = test: as above; design: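 index 0 to 10 in 10% steps of herbicidal effect with 10 meaning complete death and 0 below 10%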; conditions: 1000 g effective component per hectare, day 21 after the treatment
In short: as §4

A. retroflexus [5] = test: as above; design: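 index 0 to 10 in 10% steps of herbicidal effect with 10 meaning complete death and 0 below 10%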; conditions: 1000 g effective component per hectare, day 21 after the treatment
In short: as §4

Echinochloa crus-galli [6] = test: as above; design: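 index 0 to 10 in 10% steps of herbicidal effect with 10 meaning complete death and 0 below 10%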; conditions: 1000 g effective component per hectare, day 21 after the treatment
In short: as §4

Row | SMILES | herbicidal effect index, Setaria viridis (Setaria viridis) | Herbicidal effects index number, Echinochloa oryzicola (Echinochloa oryzicola) | Herbicidal effects index number, Monochoria vaginalis (Monochoria vaginalis) | herbicidal effect index, S. juncoides Rocxb. (Scirpus juncoides Rocxb.) | herbicidal effect index, Echinochloa crus-galli (Echinochloa crus-galli [1]) | herbicidal effect index, Abutilon theophrasti (Indian millet [2]) | herbicidal effect index, Amaranthus retroflexus (A. retroflexus [3]) | herbicidal effect index, Setaria viridis (foxtail) | herbicidal effect index, Abutilon theophrasti (Indian millet [4]) | herbicidal effect index, Amaranthus retroflexus (A. retroflexus [5]) | herbicidal effect index, Echinochloa crus-galli (Echinochloa crus-galli [6])
1 | Cn1nc(C(=O)C2=C(O)CCCC2=O)c(=O)n(-c2ccnc(Br)c2)c1=O [I-281] | 7 | 10 | 10 | 10 | 9 | 9 | 9 | 9 | 9 | 10 | 9
2 | Cn1nc(C(=O)C2=C(O)CCCC2=O)c(=O)n(-c2ccccc2[N+](=O)[O-])c1=O [I-66] | 10 | 10 | 10 | 10 | 10 | 10 | 10 | 10 | 10 | 10 | 10
3 | Cc1ccc(C(F)(F)F)cc1-n1c(=O)c(C(=O)C2=C(O)CCCC2=O)nn(C)c1=O [I-284] | 7 | 10 | 10 | 10 | 9 | 8 | 9 | 8 | 9 | 10 | 10
4 | CCCn1c(=O)c(C(=O)C2=C(O)CCCC2=O)nn(C)c1=O [I-3] | 9 | 10 | 10 | 10 | 9 | 9 | 9 | 10 | 10 | 10 | 10
5 | Cn1nc(C(=O)C2=C(O)CCCC2=O)c(=O)n(-c2ccc(Cl)c(Cl)c2)c1=O [I-81] | 10 | 10 | 10 | 10 | 10 | 10 | 10 | 7 | 10 | 10 | 9
6 | Cn1nc(C(=O)C2=C(O)CCCC2=O)c(=O)n(-c2ccccc2)c1=O [I-50, 6-(2-hydroxy-6-oxocyclohexa-1-enecarbonyl)-2-methyl-4-phenyl-1,2,4-triazine-3,5 (2H, 4H)-dione] | 10 | 10 | 10 | 10 | 10 | 10 | 10 | 10 | 10 | 10 | 10
7 | Cn1nc(C(=O)C2=C(O)CCCC2=O)c(=O)n(-c2ccccn2)c1=O [I-179] | 10 | 10 | 10 | 10 | 10 | 10 | 10 | 10 | 10 | 9 | 10
8 | Cn1nc(C(=O)C2=C(O)CCCC2=O)c(=O)n(C)c1=S [I-265] | 9 | 10 | 10 | 10 | 8 | 9 | 10 | 10 | 10 | 10 | 10
9 | COc1ccc(-n2c(=O)c(C(=O)C3=C(O)CCCC3=O)nn(C)c2=O)c(OC)c1OC [I-298] | 8 | 10 | 10 | 10 | 10 | 9 | 10 | 7 | 10 | 10 | 7
10 | Cc1ncccc1-n1c(=O)c(C(=O)C2=C(O)CCCC2=O)nn(C)c1=O [I-277] | 9 | 9 | 9 | 10 | 10 | 9 | 10 | 8 | 7 | 8 | 8
